Test results published in ChEMBL document CHEMBL1151044, “5,7-Diphenyl-3-ureidohexahydroazepin-2-ones as Cholecystokinin-B receptor ligands” (Bioorg Med Chem Lett, 1994).

molecular target: T1, Cholecystokinin receptor type A (Cavia porcellus, UniProt Q63931); experiment: Inhibitory activity against cholecystokinin-A (CCK-A) receptor in pancreas of guinea pig.
T1 sequence (Q63931 whole entry): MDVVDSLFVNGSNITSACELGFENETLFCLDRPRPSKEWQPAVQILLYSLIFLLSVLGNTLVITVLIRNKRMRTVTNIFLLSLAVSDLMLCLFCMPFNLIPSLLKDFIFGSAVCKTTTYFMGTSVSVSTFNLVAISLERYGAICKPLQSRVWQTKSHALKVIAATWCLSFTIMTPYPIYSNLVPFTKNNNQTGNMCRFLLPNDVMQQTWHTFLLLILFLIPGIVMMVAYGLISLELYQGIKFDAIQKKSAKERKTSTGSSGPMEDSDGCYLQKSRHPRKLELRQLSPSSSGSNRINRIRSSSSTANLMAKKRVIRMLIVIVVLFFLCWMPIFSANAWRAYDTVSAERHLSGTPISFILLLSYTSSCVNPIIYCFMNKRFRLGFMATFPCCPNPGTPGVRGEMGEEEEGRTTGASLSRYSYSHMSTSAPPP

**Q.** How did the IC50 turn out when `Cc1cccc(NC(=O)N[C@@H]2C[C@H](c3ccc(F)cc3)C[C@H](c3ccccc3)N(CC(=O)NC(C)(C)C)C2=O)c1` was run?
**A.** Its IC50 is 700 nM.

**Q.** `Cc1cccc(NC(=O)N[C@@H]2C[C@H](c3ccccc3C)C[C@H](c3ccccc3)N(CC(=O)NC(C)(C)C)C2=O)c1` (stereo in doubt; (+)-10i) was tested. Which IC50 did it give?
**A.** Its IC50 is 610 nM.

**Q.** Which IC50 does the source give for `Cc1ccc(NC(=O)CN2C(=O)[C@H](NC(=O)Nc3cccc(C)c3)C[C@H](c3ccccc3C)C[C@@H]2c2ccccc2)cc1` here?
**A.** Its IC50 is greater than 10 nM.

**Q.** How did the IC50 turn out when `Cc1cccc(NC(=O)N[C@@H]2C[C@H](c3ccccc3C)C[C@H](c3ccccc3)N(CC(=O)NC(C)C)C2=O)c1` was run?
**A.** Its IC50 is 560 nM.

**Q.** `Cc1cccc(NC(=O)N[C@@H]2C[C@H](c3ccccc3)C[C@H](c3ccccc3)N(CC(=O)NC(C)(C)C)C2=O)c1` was tested. Which IC50 did it give?
**A.** Its IC50 is 823 nM.

**Q.** Which IC50 does the source give for `Cc1ccccc1[C@@H]1C[C@H](c2ccccc2)N(CC(=O)NC(C)(C)C)C(=O)[C@H](NC(=O)Nc2cccc(C(F)(F)F)c2)C1` here?
**A.** The IC50 was 2500 nM.

**Q.** How did the IC50 turn out when `Cc1ccc([C@@H]2C[C@H](c3ccccc3)N(CC(=O)NC(C)(C)C)C(=O)[C@H](NC(=O)Nc3cccc(C)c3)C2)cc1` was run?
**A.** Its IC50 is 1.1 nM.

**Q.** For `Cc1cccc(NC(=O)N[C@@H]2C[C@H](c3ccccc3)C[C@H](c3ccc(F)cc3)N(CC(=O)NC(C)(C)C)C2=O)c1`, which IC50 is on record?
**A.** The IC50 was 2.8 nM.

**Q.** For `COc1ccc(NC(=O)N[C@@H]2C[C@H](c3ccccc3C)C[C@H](c3ccccc3)N(CC(=O)NC(C)(C)C)C2=O)cc1`, which IC50 is on record?
**A.** The IC50 was 2.2 nM.

**Q.** For `Cc1cccc(NC(=O)N[C@@H]2C[C@H](c3ccccc3)C[C@H](c3cccc(C)c3)N(CC(=O)NC(C)(C)C)C2=O)c1`, which IC50 is on record?
**A.** Its IC50 is 1.6 nM.

**Q.** Which IC50 does the source give for `Cc1cccc(NC(=O)N[C@H]2C[C@H](c3ccccc3)C[C@H](c3ccccc3)N(CC(=O)NC(C)(C)C)C2=O)c1` here?
**A.** Its IC50 is 10 nM.

**Q.** Which IC50 does the source give for `Cc1cccc(NC(=O)N[C@@H]2C[C@H](c3ccccc3C)C[C@H](c3ccccc3)N(CC(=O)NC(C)(C)C)C2=O)c1` (stereo in doubt; (-)-10i) here?
**A.** The IC50 was 930 nM.

**Q.** `Cc1ccc([C@H]2C[C@@H](c3ccccc3)C[C@@H](NC(=O)Nc3cccc(C)c3)C(=O)N2CC(=O)NC(C)(C)C)cc1` was tested. Which IC50 did it give?
**A.** Its IC50 is 970 nM.

**Q.** Which IC50 does the source give for `Cc1ccccc1[C@@H]1C[C@H](c2ccccc2)N(CC(=O)NC(C)(C)C)C(=O)[C@H](NC(=O)Nc2ccc(Cl)cc2)C1` here?
**A.** Its IC50 is greater than 10 nM.

**Q.** Which IC50 does the source give for `Cc1cccc(NC(=O)N[C@@H]2C[C@H](c3ccccc3C)C[C@H](c3ccccc3)N(CC(=O)Nc3ccc(Cl)cc3)C2=O)c1` here?
**A.** The IC50 was greater than 10 nM.

**Q.** For `Cc1cccc(NC(=O)N[C@@H]2C[C@H](c3ccccc3C)C[C@H](c3ccccc3)N(CC(=O)Nc3ccccc3Cl)C2=O)c1`, which IC50 is on record?
**A.** Its IC50 is 1.1 nM.

**Q.** For `Cc1cccc(NC(=O)N[C@@H]2C[C@H](c3ccccc3C)C[C@H](c3ccccc3)N(CC(=O)Nc3cccc(Cl)c3)C2=O)c1`, which IC50 is on record?
**A.** The IC50 was greater than 10 nM.

**Q.** For `Cc1cccc(NC(=O)N[C@@H]2C[C@H](c3ccccc3)C[C@H](c3cccc(F)c3)N(CC(=O)NC(C)(C)C)C2=O)c1`, which IC50 is on record?
**A.** Its IC50 is 1 nM.

**Q.** How did the IC50 turn out when `Cc1ccccc1[C@@H]1C[C@H](c2ccccc2)N(CC(=O)NC(C)(C)C)C(=O)[C@H](NC(=O)Nc2cccc(F)c2)C1` was run?
**A.** Its IC50 is 1.8 nM.

**Q.** For `CCc1cccc(NC(=O)N[C@@H]2C[C@H](c3ccccc3C)C[C@H](c3ccccc3)N(CC(=O)NC3(C)CCCCC3)C2=O)c1`, which IC50 is on record?
**A.** Its IC50 is greater than 10 nM.

**Q.** Which IC50 does the source give for `Cc1cccc(NC(=O)N[C@@H]2C[C@H](c3cccc(C)c3)C[C@H](c3ccccc3)N(CC(=O)NC(C)(C)C)C2=O)c1` here?
**A.** Its IC50 is 1.3 nM.

**Q.** For `Cc1cccc(NC(=O)N[C@@H]2C[C@H](c3ccccc3C)C[C@H](c3ccccc3)N(CC(=O)NC(C(C)(C)C)C(C)(C)C)C2=O)c1`, which IC50 is on record?
**A.** Its IC50 is greater than 10 nM.

**Q.** For `Cc1ccccc1[C@@H]1C[C@H](c2ccccc2)N(CC(=O)NC(C)(C)C)C(=O)[C@H](NC(=O)Nc2cccc([N+](=O)[O-])c2)C1`, which IC50 is on record?
**A.** Its IC50 is greater than 10 nM.

**Q.** `Cc1cccc(NC(=O)N[C@@H]2C[C@H](c3ccccc3C)C[C@H](c3ccccc3)N(CC(=O)NC(C)(C)C)C2=O)c1` (stereo in doubt; 10i) was tested. Which IC50 did it give?
**A.** Its IC50 is 580 nM.

**Q.** For `CCc1ccccc1[C@@H]1C[C@H](c2ccccc2)N(CC(=O)NC(C)(C)C)C(=O)[C@H](NC(=O)Nc2cccc(C)c2)C1`, which IC50 is on record?
**A.** Its IC50 is 810 nM.

**Q.** Which IC50 does the source give for `COc1ccccc1[C@@H]1C[C@H](c2ccccc2)N(CC(=O)NC(C)(C)C)C(=O)[C@H](NC(=O)Nc2cccc(C)c2)C1` here?
**A.** The IC50 was 750 nM.

**Q.** Which IC50 does the source give for `Cc1cccc(NC(=O)N[C@@H]2C[C@H](c3ccccc3C)C[C@H](c3ccccc3)N(CC(=O)NC3(C)CCCCC3)C2=O)c1` here?
**A.** Its IC50 is 4.4 nM.

**Q.** With `Cc1cccc(NC(=O)N[C@@H]2C[C@H](c3ccccc3C)C[C@H](c3ccccc3)N(CC(=O)Nc3ccccc3C)C2=O)c1` as the molecule, how does the IC50 read?
**A.** The IC50 was 1.1 nM.
